According to patent US11141444B2, “Lactobacillus crispatus KBL693 strain and use thereof” (KO Biolabs, Inc., priority 2018, dated 2021):

Tested on: RBL-2H3 cells
Assay: Inhibition of degranulation (β-hexosaminidase co-secreted with histamine) in RBL-2H3 cells
Type: cell-based
Conditions: RBL-2H3, IgE + DNP-HAS induced degranulation; 120 μL culture supernatant or ketotifen 20 μg/mL; negative control (Siraganian buffer) = 1.0
From the text: It has been reported that, in an allergic reaction, histamine is expressed in tissues, causing an inflammatory reaction, and suppressing histamine secretion leads to alleviation of allergic symptoms by blocking the reaction by histamine. The present invention attempted to select probiotic strains that can show effects on the alleviation and treatment of allergic reactions through inhibition of histamine secretion. To this end, a total of eight Lactobacillus strains derived from human vagina were evaluated for the ability to suppress histamine secretion. […]
To identify the activity of β-hexosaminidase, 25 μL of the supernatant collected in Example 1-3 was transferred to each well of a 96-well plate, and then 25 μL of each substrate (p-nitrophenyl N-acetyl-D-[…]) was added thereto, and followed by a reaction at 37° C. in the 5% CO2 incubator for 90 minutes. Then, 200 μL of stop solution (Na2CO3/NaHCO3) was added to stop the reaction and then absorbance was measured at 405 nm. The absorbance when treated with each type of Lactobacillus crispatus was compared to the negative control group and converted to percentage to show the level of inhibition of the degranulation.

CN1CCC(=C2c3ccccc3CC(=O)c3sccc32)CC1 [Ketotifen, ketotifen]
β-hexosaminidase (fold change): 0.2569 fold change
